The values below are quoted from earlier work in US20050124592A1 (priority 2002, published 2005).

Like-named read-outs stand apart in the source and are kept apart here.

For one data set, the target named is T1, progesterone receptor (Homo sapiens, UniProt P06401).
T1 sequence (P06401 1-933): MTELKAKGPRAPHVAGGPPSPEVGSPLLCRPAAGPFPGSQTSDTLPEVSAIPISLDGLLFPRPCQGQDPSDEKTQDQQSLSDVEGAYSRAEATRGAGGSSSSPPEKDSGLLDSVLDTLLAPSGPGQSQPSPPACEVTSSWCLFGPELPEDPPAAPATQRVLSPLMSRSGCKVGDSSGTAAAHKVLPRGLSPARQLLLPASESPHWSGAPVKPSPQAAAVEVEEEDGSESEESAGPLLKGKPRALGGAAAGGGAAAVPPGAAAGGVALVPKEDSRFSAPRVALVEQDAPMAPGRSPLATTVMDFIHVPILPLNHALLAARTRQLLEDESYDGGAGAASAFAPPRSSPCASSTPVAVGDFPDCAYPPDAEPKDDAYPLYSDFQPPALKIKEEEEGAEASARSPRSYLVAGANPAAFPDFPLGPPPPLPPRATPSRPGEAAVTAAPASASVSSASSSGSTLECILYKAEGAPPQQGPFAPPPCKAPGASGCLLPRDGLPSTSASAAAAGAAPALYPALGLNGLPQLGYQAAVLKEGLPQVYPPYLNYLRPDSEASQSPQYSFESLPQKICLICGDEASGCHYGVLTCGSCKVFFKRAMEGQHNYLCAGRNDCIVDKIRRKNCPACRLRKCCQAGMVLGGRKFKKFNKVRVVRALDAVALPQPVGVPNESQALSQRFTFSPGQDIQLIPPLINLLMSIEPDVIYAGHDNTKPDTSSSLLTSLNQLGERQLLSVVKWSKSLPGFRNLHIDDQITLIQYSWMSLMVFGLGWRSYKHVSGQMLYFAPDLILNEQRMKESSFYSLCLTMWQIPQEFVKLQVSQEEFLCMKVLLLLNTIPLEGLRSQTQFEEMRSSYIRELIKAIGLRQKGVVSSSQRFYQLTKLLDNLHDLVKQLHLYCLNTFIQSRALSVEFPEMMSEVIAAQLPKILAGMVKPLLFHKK

Take `C#C[C@]1(O)CC[C@H]2[C@@H]3[C@H](C)CC4=C(CCC(=O)C4)[C@H]3CC[C@@]21C` [tibolone, (7α,17α)-17-hydroxy-7-methyl-19-nor-17-pregn-5(10)-en-20-yn-3-one]: the estrogenic activity entry in the data set with estrogen receptor is recorded as “hardly has an estrogenic activity”; with estrogen receptor (listed as Tibolone), “weak”. Further, the progestagenic activity result on progesterone receptor is on record as “weak”.
